Measurements taken from BindingDB's records for PubMed 1988661 (Merck Sharp & Dohme Research Laboratories, 1991).
Substitutions are numbered along the chain they refer to. Where “and” joins values, the source holds several entries; their conditions need not be identical. Equal values may be shown once. Square brackets hold non-standard residues; d marks the D form. Peptide text beside a SMILES is read from it. dPiz(1,6-dehydro) = O=C(O)[C@H]1CCC=NN1; Pip = O=C(O)[C@@H]1CCCCN1; dPip = O=C(O)[C@H]1CCCCN1

Assays:
[1] = target: T1, Rat vasopressin-neurophysin (Rattus norvegicus, UniProt Q6LEI5)
T1 sequence (Q6LEI5 whole entry): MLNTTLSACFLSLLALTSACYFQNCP

[2] = target: Vasopressin V2 receptor (Rattus norvegicus, UniProt Q00788)
[3] = target: T2, Oxytocin receptor (Rattus norvegicus, UniProt P70536)
T2 sequence (P70536 whole entry): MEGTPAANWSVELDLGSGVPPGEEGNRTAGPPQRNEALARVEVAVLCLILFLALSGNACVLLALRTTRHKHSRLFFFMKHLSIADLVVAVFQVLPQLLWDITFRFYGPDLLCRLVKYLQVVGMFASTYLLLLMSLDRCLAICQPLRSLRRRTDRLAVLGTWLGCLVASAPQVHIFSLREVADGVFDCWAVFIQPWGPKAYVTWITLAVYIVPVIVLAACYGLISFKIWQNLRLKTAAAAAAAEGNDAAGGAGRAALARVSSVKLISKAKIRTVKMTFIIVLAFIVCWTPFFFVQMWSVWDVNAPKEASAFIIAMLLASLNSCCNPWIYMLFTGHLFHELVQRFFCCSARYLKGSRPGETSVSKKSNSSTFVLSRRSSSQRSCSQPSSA

[4] = target: T3, Oxytocin receptor (Macaca mulatta, UniProt P56494)
T3 sequence (P56494 whole entry): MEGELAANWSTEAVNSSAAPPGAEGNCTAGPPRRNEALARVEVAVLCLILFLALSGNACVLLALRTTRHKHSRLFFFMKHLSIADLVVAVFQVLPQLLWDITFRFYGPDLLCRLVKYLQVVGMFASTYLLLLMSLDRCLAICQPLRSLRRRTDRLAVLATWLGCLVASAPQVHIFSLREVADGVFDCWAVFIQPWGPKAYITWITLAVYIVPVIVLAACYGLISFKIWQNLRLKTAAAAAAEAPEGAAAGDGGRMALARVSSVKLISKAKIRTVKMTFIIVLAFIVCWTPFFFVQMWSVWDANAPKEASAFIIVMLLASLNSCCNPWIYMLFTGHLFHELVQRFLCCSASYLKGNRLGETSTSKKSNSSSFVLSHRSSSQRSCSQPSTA

[5] = target: T4, Oxytocin receptor (Homo sapiens, UniProt P30559)
T4 sequence (P30559 whole entry): T3 sequence (P56494 whole entry) with E4A, T11A, V14A, S16A, C27R, F51L, H69Q, M255V, N355R, T362A

Sequence of Vasopressin V2 receptor (Q00788 whole entry): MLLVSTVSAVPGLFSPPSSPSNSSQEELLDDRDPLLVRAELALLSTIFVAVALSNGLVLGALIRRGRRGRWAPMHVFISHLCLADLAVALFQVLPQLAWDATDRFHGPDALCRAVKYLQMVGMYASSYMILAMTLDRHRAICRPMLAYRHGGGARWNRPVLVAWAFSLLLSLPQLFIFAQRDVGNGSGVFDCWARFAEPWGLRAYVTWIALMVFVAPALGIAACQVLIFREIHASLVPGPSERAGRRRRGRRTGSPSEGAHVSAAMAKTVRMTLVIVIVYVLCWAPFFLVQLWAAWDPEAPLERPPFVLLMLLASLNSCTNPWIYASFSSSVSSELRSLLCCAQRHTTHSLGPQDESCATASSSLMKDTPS

Ki [1] [nM]	Ki [2]	Ki [3]	Ki [4] [nM]	Ki [5] [nM]	SMILES
2200	3100 nM	–	–	–	CC[C@H](C)[C@@H]1NC(=O)[C@@H](Cc2c[nH]c3ccccc23)NC(=O)[C@@H]2CCCN2C(=O)[C@@H](Cc2c[nH]cn2)NC(=O)[C@@H]2CCCCN2C(=O)[C@H]2CCCCN2C1=O [CAS_196819] (cyclo(I[dPip][Pip][dH]P[dW]))
–	–	7.3 nM and 12 nM	12	–	CCC(C)C1NC(=O)[C@H](Cc2ccccc2)NC(=O)[C@H]2CCCN2C(=O)[C@H](Cc2ccccc2)N(C)C(=O)[C@@H]2CCC=NN2C(=O)[C@H]2CCC=NN2C1=O (some centres undefined) [J325.338D]
1200	370 nM	1.3 nM and 2.5 nM	2.3	1.3	CC[C@H](C)[C@@H]1NC(=O)[C@@H](Cc2c[nH]c3ccccc23)NC(=O)[C@@H]2CCCN2C(=O)[C@@H](Cc2cnc[nH]2)NC(=O)[C@@H]2CCCCN2C(=O)[C@H]2CCC=NN2C1=O [J325.349J] (cyclo(I[dPiz(1,6-dehydro)][Pip][dH]P[dW]))
240	550 nM	6 nM and 13 nM	33	21	CC[C@H](C)[C@@H]1NC(=O)[C@@H](Cc2ccccc2)NC(=O)[C@@H]2CCCN2C(=O)[C@@H](Cc2ccccc2)N(C)C(=O)[C@H]2CCC=NN2C1=O [J440.774A]
550	1100 nM	4.3 nM and 6.2 nM	8.1	4.1	CCC(C)C1NC(=O)[C@H](Cc2ccccc2)NC(=O)[C@H]2CCCN2C(=O)[C@H](Cc2ccccc2)N(C)C(=O)[C@H]2CC(CN(C)C)CNN2C(=O)[C@H]2CCC=NN2C1=O (some centres undefined) [J440.775J]
760	810 nM and 320 nM	0.7 nM and 0.8 nM	6.4	5.1	CCC(C)C(NC(=O)C(N)Cc1ccc2ccccc2c1)C(=O)C1(C=O)CCCN1C(=O)C(N)CC1=NC(C(=O)N2CCCCC2)(C(=O)N2CCCCC2)N=C1 (centres undefined) [NSC_188397]
9500	240 nM	3.4 nM and 4.2 nM	4.7	4.5	CCC(C)C(N)C(=O)N(C(=O)C1CCCN1C(=O)C(CC1=CC=CCC1(C(=O)N1C=CC=CC1)C(=O)N1CCNCC1)NC)C(C=O)Cc1c[nH]c2ccccc12 (centres undefined) [NSC_3083084]
